In patent US7625841B2, “Substituted thiene-3-ylsulphonylamino(thio)carbonyltriazolin(ethi)ones” (Bayer CropScience AG, priority 2001, dated 2009):
Counter-ions that a name gives are not always drawn.

Assays:
Alopecurus [1] = experiment: Post-emergence test/greenhouse; assay type: in vivo; conditions: greenhouse, application rate 15 gai/ha, rated after three weeks, 0%=no effect, 100%=total destruction
Experimental: (§1) • Solvent: 5 parts by weight of acetone • Emulsifier: 1 part by weight of alkylaryl polyglycol ether
(§2) To produce a suitable preparation of active compound, 1 part by weight of active compound is mixed with the stated amount of solvent, the stated amount of emulsifier is added and the concentrate is diluted with water to the desired concentration.
(§3) Test plants of a height of 5-15 cm are sprayed with the preparation of active compound such that the particular amounts of active compound desired are applied per unit area. The concentration of the spray liquor is chosen such that the particular amounts of active compound desired are applied in 1000 l of water/ha.
(§4) After three weeks, the degree of damage to the plants is rated in % damage in comparison to the development of the untreated control.
(§5) The figures denote: • 0%=no effect (like untreated control) • 100%=total destruction

Bromus [2] = experiment: Post-emergence test/greenhouse; assay type: in vivo; conditions: greenhouse, application rate 15 gai/ha, rated after three weeks, 0%=no effect, 100%=total destruction
Experimental: as §1, §2, §3, §4, §5

Datura = experiment: Post-emergence test/greenhouse; assay type: in vivo; conditions: greenhouse, application rate 15 gai/ha, rated after three weeks, 0%=no effect, 100%=total destruction
Experimental: as §1, §2, §3, §4, §5

Echinochloa = experiment: Post-emergence test/greenhouse; assay type: in vivo; conditions: greenhouse, application rate 15 gai/ha, rated after three weeks, 0%=no effect, 100%=total destruction
Experimental: as §1, §2, §3, §4, §5

Lolium [3] = experiment: Post-emergence test/greenhouse; assay type: in vivo; conditions: greenhouse, application rate 15 gai/ha, rated after three weeks, 0%=no effect, 100%=total destruction
Experimental: as §1, §2, §3, §4, §5

Polygonum [4] = experiment: Post-emergence test/greenhouse; assay type: in vivo; conditions: greenhouse, application rate 15 gai/ha, rated after three weeks, 0%=no effect, 100%=total destruction
Experimental: as §1, §2, §3, §4, §5

Xanthium [5] = experiment: Post-emergence test/greenhouse; assay type: in vivo; conditions: greenhouse, application rate 15 gai/ha, rated after three weeks, 0%=no effect, 100%=total destruction
Experimental: as §1, §2, §3, §4, §5

maize [6] = experiment: Post-emergence test/greenhouse; assay type: in vivo; conditions: greenhouse, application rate 15 gai/ha, rated after three weeks, 0%=no effect, 100%=total destruction
Experimental: as §1, §2, §3, §4, §5

Alopecurus [7] = experiment: Pre-emergence test/greenhouse; assay type: in vivo; conditions: greenhouse, application rate 15 gai/ha, rated after three weeks, 0%=no effect, 100%=total destruction
In short: (§6)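 Damage scores (% of untreated control; 100% = total destruction) are taken at three weeks. The soil is treated by spraying 24 hours post-sowing, delivering the chosen dose per area in 1000 litres water per hectare.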

Bromus [8] = experiment: Pre-emergence test/greenhouse; assay type: in vivo; conditions: greenhouse, application rate 15 gai/ha, rated after three weeks, 0%=no effect, 100%=total destruction
In short: as §6

Lolium [9] = experiment: Pre-emergence test/greenhouse; assay type: in vivo; conditions: greenhouse, application rate 15 gai/ha, rated after three weeks, 0%=no effect, 100%=total destruction
In short: as §6

Polygonum [10] = experiment: Pre-emergence test/greenhouse; assay type: in vivo; conditions: greenhouse, application rate 15 gai/ha, rated after three weeks, 0%=no effect, 100%=total destruction
In short: as §6

Solanum = experiment: Pre-emergence test/greenhouse; assay type: in vivo; conditions: greenhouse, application rate 15 gai/ha, rated after three weeks, 0%=no effect, 100%=total destruction
In short: as §6

Stellaria = experiment: Pre-emergence test/greenhouse; assay type: in vivo; conditions: greenhouse, application rate 15 gai/ha, rated after three weeks, 0%=no effect, 100%=total destruction
In short: as §6

Xanthium [11] = experiment: Pre-emergence test/greenhouse; assay type: in vivo; conditions: greenhouse, application rate 15 gai/ha, rated after three weeks, 0%=no effect, 100%=total destruction
In short: as §6

maize [12] = experiment: Pre-emergence test/greenhouse; assay type: in vivo; conditions: greenhouse, application rate 15 gai/ha, rated after three weeks, 0%=no effect, 100%=total destruction
In short: as §6

wheat [13] = experiment: Pre-emergence test/greenhouse; assay type: in vivo; conditions: greenhouse, application rate 15 gai/ha, rated after three weeks, 0%=no effect, 100%=total destruction
In short: as §6

weeds [14] = experiment: Post-emergence test, summary for weeds; assay type: in vivo
Experimental: as §1, §2, §3, §4, §5

[15] = test system: crop plants such as, for example, maize, oilseed rape and wheat; experiment: Post-emergence test, summary for crop plants; assay type: in vivo
Experimental: as §1, §2, §3, §4, §5

weeds [16] = experiment: Pre-emergence test, summary for weeds; assay type: in vivo
Experimental: as §1
(§7) To produce a suitable preparation of active compound, 1 part by weight of active compound is mixed with the stated amount of solvent, the stated amount of emulsifier is added and the concetrate is diluted with water to the desired concentration.
(§8) Seeds of the test plants are sown in normal soil. After 24 hours, the soil is sprayed with the preparation of active compound such that the particular amount of active compound desired is applied per unit area. The concentration of active compound in the spray liquor is chosen such that the particular amount of active compound desired is applied in 1000 litres of water per hectare.
(§9) After three weeks, the degree of damage to the plants is rated in % damage in comparison to the development of the untreated control. The figures denote: • 0%=no effect (like untreated control) • 100%=total destruction

[17] = test system: crop plants, such as, for example, maize, soyabean and wheat; experiment: Pre-emergence test, summary for crop plants; assay type: in vivo
Experimental: as §1, §7, §8, §9

Avena fatua [18] = experiment: Post-emergence test/greenhouse; assay type: in vivo; conditions: greenhouse, application rate 15 gai/ha, rated after three weeks, 0%=no effect, 100%=total destruction
Experimental: as §1, §2, §3, §4, §5

Viola = experiment: Post-emergence test/greenhouse; assay type: in vivo; conditions: greenhouse, application rate 15 gai/ha, rated after three weeks, 0%=no effect, 100%=total destruction
Experimental: as §1, §2, §3, §4, §5

wheat [19] = experiment: Post-emergence test/greenhouse; assay type: in vivo; conditions: greenhouse, application rate 15 gai/ha, rated after three weeks, 0%=no effect, 100%=total destruction
Experimental: as §1, §2, §3, §4, §5

Amaranthus = experiment: Pre-emergence test/greenhouse; assay type: in vivo; conditions: greenhouse, application rate 15 gai/ha, rated after three weeks, 0%=no effect, 100%=total destruction
In short: as §6

Matricaria = experiment: Pre-emergence test/greenhouse; assay type: in vivo; conditions: greenhouse, application rate 15 gai/ha, rated after three weeks, 0%=no effect, 100%=total destruction
In short: as §6

Digitaria [20] = experiment: Post-emergence test/greenhouse; assay type: in vivo; conditions: greenhouse, application rate 15 gai/ha, rated after three weeks, 0%=no effect, 100%=total destruction
Experimental: as §1, §2, §3, §4, §5

Setaria [21] = experiment: Post-emergence test/greenhouse; assay type: in vivo; conditions: greenhouse, application rate 15 gai/ha, rated after three weeks, 0%=no effect, 100%=total destruction
Experimental: as §1, §2, §3, §4, §5

Avena fatua [22] = experiment: Pre-emergence test/greenhouse; assay type: in vivo; conditions: greenhouse, application rate 15 gai/ha, rated after three weeks, 0%=no effect, 100%=total destruction
In short: as §6

Chenopodium = experiment: Pre-emergence test/greenhouse; assay type: in vivo; conditions: greenhouse, application rate 15 gai/ha, rated after three weeks, 0%=no effect, 100%=total destruction
In short: as §6

Digitaria [23] = experiment: Pre-emergence test/greenhouse; assay type: in vivo; conditions: greenhouse, application rate 15 gai/ha, rated after three weeks, 0%=no effect, 100%=total destruction
In short: as §6

Galium = experiment: Pre-emergence test/greenhouse; assay type: in vivo; conditions: greenhouse, application rate 15 gai/ha, rated after three weeks, 0%=no effect, 100%=total destruction
In short: as §6

Setaria [24] = experiment: Pre-emergence test/greenhouse; assay type: in vivo; conditions: greenhouse, application rate 15 gai/ha, rated after three weeks, 0%=no effect, 100%=total destruction
In short: as §6

soybeans = experiment: Pre-emergence test/greenhouse; assay type: in vivo; conditions: greenhouse, application rate 15 gai/ha, rated after three weeks, 0%=no effect, 100%=total destruction
In short: as §6

Row | Compound | degree of damage to the plants, Alopecurus (Alopecurus [1]) [%] | degree of damage to the plants, Bromus (Bromus [2]) [%] | degree of damage to the plants, Datura (Datura) [%] | degree of damage to the plants, Echinochloa (Echinochloa) [%] | degree of damage to the plants, Lolium (Lolium [3]) [%] | degree of damage to the plants, Polygonum (Polygonum [4]) [%] | degree of damage to the plants, Xanthium (Xanthium [5]) [%] | degree of damage to the plants, maize (maize [6]) [%] | degree of damage to the plants, Alopecurus (Alopecurus [7]) [%] | degree of damage to the plants, Bromus (Bromus [8]) [%] | degree of damage to the plants, Lolium (Lolium [9]) [%] | degree of damage to the plants, Polygonum (Polygonum [10]) [%] | degree of damage to the plants, Solanum (Solanum) [%] | degree of damage to the plants, Stellaria (Stellaria) [%] | degree of damage to the plants, Xanthium (Xanthium [11]) [%] | degree of damage to the plants, maize (maize [12]) [%] | degree of damage to the plants, wheat (wheat [13]) [%] | activity against weeds compared with the known compounds (A) and (B) (weeds [14]) | compatibility with crop plants compared with the known compounds (A) and (B) [15] | activity against weeds compared with the known compounds (A) to (G) (weeds [16]) | other results
1 | CCOC(=O)c1csc(C)c1S(=O)(=O)NC(=O)n1nc(OCC)n(C)c1=O [Example 55] | 90 | 90 | 95 | 90 | 90 | 90 | 95 | 0 | 95 | 95 | 90 | 95 | 100 | 100 | 95 | 0 | 0 | considerably stronger activity against weeds | substantially better compatibility with crop plants | considerably stronger activity against weeds | tolerance by crop plants [17]: tolerated well by crop plants
2 | CCOC(=O)c1csc(C)c1S(=O)(=O)NC(=O)n1nc(OC)n(C2CC2)c1=O [Example 56] |  | 90 | 90 | 95 | 90 |  | 95 |  |  | 95 | 95 |  | 100 | 100 | 95 | 0 | 0 | considerably stronger activity against weeds | substantially better compatibility with crop plants | considerably stronger activity against weeds | degree of damage to the plants, Avena fatua (Avena fatua [18]): 90%; degree of damage to the plants, Viola (Viola): 95%; degree of damage to the plants, wheat (wheat [19]): 0%; degree of damage to the plants, Amaranthus (Amaranthus): 100%; degree of damage to the plants, Matricaria (Matricaria): 100%; tolerance by crop plants [17]: tolerated well by crop plants
3 | CCCOc1nn(C(=O)NS(=O)(=O)c2c(C(=O)OC)csc2C)c(=O)n1C1CC1 [(B), methyl 4-[[[(4-cyclopropyl-4,5-dihydro-5-oxo-3-n-propoxy-1H-1,2,4-triazol-1-yl)-carbonyl]amino]sulfonyl]-5-methyl-3-thiophenecarboxylate, reference compound] | 0 | 50 | 80 |  | 60 | 70 | 50 | 90 | 20 | 40 |  | 50 | 80 |  |  |  |  |  |  |  | degree of damage to the plants, Avena fatua (Avena fatua [18]): 50%; degree of damage to the plants, Digitaria (Digitaria [20]): 20%; degree of damage to the plants, Setaria (Setaria [21]): 60%; degree of damage to the plants, wheat (wheat [19]): 30%; degree of damage to the plants, Amaranthus (Amaranthus): 80%; degree of damage to the plants, Avena fatua (Avena fatua [22]): 10%; degree of damage to the plants, Chenopodium (Chenopodium): 40%; degree of damage to the plants, Digitaria (Digitaria [23]): 0%; degree of damage to the plants, Galium (Galium): 20%; pest or weed control at 15 g/ha (Lolium [9]; Lolium, 504 h, read-out: degree of damage to the plants, Lolium): 20%; pest or weed control at 15 g/ha (Matricaria; Matricaria, 504 h, read-out: degree of damage to the plants, Matricaria): 40%; degree of damage to the plants, Setaria (Setaria [24]): 40%; pest or weed control at 15 g/ha (Stellaria; Stellaria, 504 h, read-out: degree of damage to the plants, Stellaria): 60%; pest or weed control at 15 g/ha (Xanthium [11]; Xanthium, 504 h, read-out: degree of damage to the plants, Xanthium): 0%; plant injury at 15 g/ha (maize [12]; Zea mays, 504 h, read-out: degree of damage to the plants, maize): 0%; degree of damage to the plants, soybeans (soybeans): 0%; plant injury at 15 g/ha (wheat [13]; Triticum aestivum, 504 h, read-out: degree of damage to the plants, wheat): 0%
4 | CCOC(=O)c1csc(C)c1S(=O)(=O)NC(=O)n1nc(OC)n(C)c1=O (as salt: sodium) [Example 1, ethyl 4-[[[(3-methoxy-4-methyl-5-oxo-1H-1,2,4-triazol-1-yl)carbonyl]amino]sulfonyl]-5-methyl-3-thiophenecarboxylate] |  |  |  |  |  |  |  |  |  |  |  |  |  |  |  |  |  |  |  |  | melting point: 220 °C
